Data set [1] addresses Nucleotide-binding oligomerization domain-containing protein 1 (Homo sapiens, UniProt Q9Y239). Briefly: blockers of NOD1 pathway activity – revised, SAR follow-up (AID 2333). The format is functional.
The test system of data set [2] is HEK293. Briefly: cells. To be noted: Homo sapiens.
Another data set addresses Tumor necrosis factor (Homo sapiens, UniProt P01375). Briefly: analog potency on TNFa NF-kB signaling – cell-based, revised, SAR follow-up (AID 2337). The format is functional.
Data set [3] addresses T1, Intestinal-type alkaline phosphatase (Homo sapiens, UniProt P09923). Briefly: activation of human intestinal alkaline phosphatase – biochemical, luminescent, uHTS hits, set 2, dose response (AID 488817).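 Note: potency of activators that raise enzyme activity.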 It counts as functional.
Data set [4] concerns the target Intestinal-type alkaline phosphatase (Mus musculus, UniProt P24822). Briefly: PubChem AID 488874. It counts as functional.
Data set [5] deals with T2, Alkaline phosphatase, tissue-nonspecific isozyme (Homo sapiens, UniProt P05186).
T2 sequence (P05186 whole entry): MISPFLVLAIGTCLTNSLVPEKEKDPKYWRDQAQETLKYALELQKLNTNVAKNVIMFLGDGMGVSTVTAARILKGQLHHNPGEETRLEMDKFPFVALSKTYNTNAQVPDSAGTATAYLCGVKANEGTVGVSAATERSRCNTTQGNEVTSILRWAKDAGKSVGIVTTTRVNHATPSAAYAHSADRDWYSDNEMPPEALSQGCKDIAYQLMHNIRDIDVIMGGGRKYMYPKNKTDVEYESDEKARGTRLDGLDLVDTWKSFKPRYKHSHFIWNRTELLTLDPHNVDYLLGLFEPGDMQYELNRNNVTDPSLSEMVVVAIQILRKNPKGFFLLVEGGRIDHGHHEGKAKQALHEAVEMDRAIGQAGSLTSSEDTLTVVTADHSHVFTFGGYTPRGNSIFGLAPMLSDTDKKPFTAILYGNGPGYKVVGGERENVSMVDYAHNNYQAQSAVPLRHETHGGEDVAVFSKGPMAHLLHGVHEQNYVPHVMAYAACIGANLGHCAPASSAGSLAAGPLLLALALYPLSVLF
Briefly: activation of tissue-nonspecific alkaline phosphatase – biochemical, TNAP isozyme, human IAP uHTS hits, selectivity assay for human IAP activator project, dose response (AID 488886).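 Note: potency of compounds raising TNAP activity as a selectivity check on IAP activators.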 It counts as functional.

Data set [6] addresses T1, Intestinal-type alkaline phosphatase. Briefly: human intestinal alkaline phosphatase activators, dose response, biochemical, luminescence, uHTS hits (AID 463120). The format is functional.
The nature of data set [7]: Luminescence Cell-Based Dose Retest to Confirm Inhibitors of Cancer Stem Cells. [Related pubchem assays (depositor defined):AID2717, AID2721]. The settings on record: Homo sapiens. It counts as functional.
A short description of data set [8]: viability loss of HMLE_sh_eGFP cells – cell-based, luminescence, counter-screen for HMLE_sh_ECad selective toxicity project, dose response (AID 463074).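 Note: HMLE human mammary epithelial cells expressing control shRNA against eGFP.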 It counts as functional, Homo sapiens. (In general: Counterscreens check selectivity or assay interference.)
Data set [9] deals with Lysine-specific demethylase 4C (Homo sapiens, UniProt Q9H3R0). Briefly: inhibition of JMJD2C H3K9me3 demethylation – biochemical, DELFIA europium, cherry-picked samples, dose response (AID 488835). It counts as functional.
The nature of data set [10]: loss of viability in HepG2 cells – cell-based, CellTiter-Glo, cherry-picked, cytotoxicity control for Shn3 inhibitor project, dose response (AID 624134). The format is functional. A general note: Cellular ATP, detected with luciferase, serves as a proxy for viable cell number.
Data set [11] in a line: reduction of Shn3 3'UTR-driven luciferase in osteoblasts – cell-based, Clone20 osteoblasts, firefly luciferase, cherry-picked, dose response (AID 624132).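 Note: firefly luciferase luminescence from reporter carrying the Shn3 3'UTR in osteoblasts.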 The format is functional.
For data set [12], the system named is Vero. Briefly: cells. It counts as functional, cell-based. The settings on record: Chlorocebus sabaeus.
A short description of data set [13]: non-specific 3'UTR reporter inhibition in Clone20-Shn3RL – cell-based, Renilla luciferase, cherry-picked, counter-screen for Shn3 inhibitor project, dose response (AID 624133). The format is functional.
For data set [14], the system named is Vero. The data set is described as follows: cells. The format is functional. The settings on record: Chlorocebus sabaeus.
Data set [15] deals with HEK293. Briefly: cells. The settings on record: Homo sapiens. It counts as functional, cell-based.
The test system of data set [16] is HEK293. Briefly: inhibition of NOD1-driven NF-kB reporter – cell-based, luminescence, uHTS, primary screen (AID 1578). The format is functional. To be noted: Homo sapiens.
The test system of data set [17] is HEK293. Briefly: cells. It counts as functional, cell-based. The settings on record: Homo sapiens. This is another data set of the same source.
Data set [18] has as its system HEK293. The data set is described as follows: cells. It counts as functional, cell-based. The settings on record: Homo sapiens. This is another data set of the same source.
The test system of data set [19] is HEK293. The data set is described as follows: NOD2 signaling inhibitors in MDP-stimulated cells, cell-based, uHTS, luminescence (AID 2001). It counts as functional. To be noted: Homo sapiens.
The target in another data set is T3, Cytochrome P450 1A2 (Homo sapiens, UniProt P05177).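 Note: PubChem cytochrome P450 panel assay, CYP1A2 panel member.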
T3 sequence (P05177 whole entry): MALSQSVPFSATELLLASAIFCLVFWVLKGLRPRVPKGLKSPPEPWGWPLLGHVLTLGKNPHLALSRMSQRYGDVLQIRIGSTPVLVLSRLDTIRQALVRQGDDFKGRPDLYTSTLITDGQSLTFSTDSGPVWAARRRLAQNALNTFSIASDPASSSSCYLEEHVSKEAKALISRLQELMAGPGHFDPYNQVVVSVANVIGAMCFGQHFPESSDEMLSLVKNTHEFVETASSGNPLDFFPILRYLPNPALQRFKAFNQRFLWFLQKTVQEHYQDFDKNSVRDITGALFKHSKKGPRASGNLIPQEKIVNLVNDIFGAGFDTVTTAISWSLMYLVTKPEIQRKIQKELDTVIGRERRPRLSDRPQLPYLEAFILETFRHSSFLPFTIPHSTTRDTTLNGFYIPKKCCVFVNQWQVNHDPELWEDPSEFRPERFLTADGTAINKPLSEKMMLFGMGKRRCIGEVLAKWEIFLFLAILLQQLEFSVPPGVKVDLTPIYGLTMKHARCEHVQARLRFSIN

A further data set deals with Cytochrome P450 2C9 (Homo sapiens, UniProt P11712).
In data set [20] the target is T4, Cytochrome P450 2D6 (Homo sapiens, UniProt P10635).
Data set [21] has as its system HEK293. The data set is described as follows: cells. The settings on record: Homo sapiens. The source holds these as a separate data set.
For data set [22], the system named is HEK293. Briefly: cells. The settings on record: Homo sapiens. This is another data set of the same source.
The target of data set [23] is T4, Cytochrome P450 2D6. This is another data set of the same source.
Data set [24] relates to BJ. The data set is described as follows: growth inhibition of engineered Ras-driven BJ cells – cell-based, alamar blue fluorescence, cherrypicked samples, dose response (AID 2631).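 Note: confirmatory dose-response assay in RAS-dependent BJ fibroblasts engineered with TERT, LT and ST, with cytotoxicity read by fluorescence.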 The format is functional. The settings on record: Homo sapiens. (Alamar Blue is a resazurin reagent that responds to reducing activity.)
Another data set has as its system INS1. The data set is described as follows: INS-1E survival protection against cytokine death – cell-based, luminescence, retest, dose response (AID 449756).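 Note: cell death triggered by IL-1 beta plus TNF-alpha plus IFN-gamma mixture; protective hits raise ATP signal compared with cytokine alone wells.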 The settings on record: Rattus norvegicus. The format is functional.
The subject of data set [25] is BJ. Briefly: BJ-TERT-LT-ST fibroblast viability loss – cell-based, RAS-independent, luminescence, dose response (AID 1935).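 Note: BJ fibroblasts immortalized with TERT plus LT and ST oncogenes.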 The format is functional. To be noted: Homo sapiens.
In data set [26] the test system is BJ. Briefly: cells. It counts as functional, cell-based. The settings on record: Homo sapiens.
Data set [27] in a line: cells. The format is functional, cell-based.
The nature of data set [28]: fluconazole-exposed Candida albicans growth modulators – fluorescence, retest, confirmation (AID 2467). The format is functional, cell-based.
Data set [29] deals with BJ. The data set is described as follows: BJ-TERT fibroblast viability loss – cell-based, RAS-independent, luminescence, dose response (AID 1933). It counts as functional. To be noted: Homo sapiens.
Data set [30] can be described thus: cells. It counts as functional, cell-based. The source holds these as a separate data set.
Data set [31] in a line: DRD fibroblast viability loss – cell-based, non-viral oncogenic, luminescence, dose response (AID 1934). The format is functional. The settings on record: Homo sapiens.
The nature of data set [32]: HEK-293T viability loss after treatment – luminescence, T-cell screen hits, cytotoxicity control for TCR NF-kB inhibitor project, dose response (AID 489026).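 Note: cells exposed to compound about 14 hours before the viability readout.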 It counts as functional, cell-based.
Data set [33] is described as follows: NIH-3T3 fibroblast cytotoxicity, dose response, cytotoxicity control, cell-based, fluorescence, Alamar Blue, secondary assay (AID 2327).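 Note: NIH-3T3 mouse fibroblasts cultured with fluconazole at 8 µg/mL.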 The format is functional.

The source made the active and inactive calls.

T1 sequence (P09923 whole entry): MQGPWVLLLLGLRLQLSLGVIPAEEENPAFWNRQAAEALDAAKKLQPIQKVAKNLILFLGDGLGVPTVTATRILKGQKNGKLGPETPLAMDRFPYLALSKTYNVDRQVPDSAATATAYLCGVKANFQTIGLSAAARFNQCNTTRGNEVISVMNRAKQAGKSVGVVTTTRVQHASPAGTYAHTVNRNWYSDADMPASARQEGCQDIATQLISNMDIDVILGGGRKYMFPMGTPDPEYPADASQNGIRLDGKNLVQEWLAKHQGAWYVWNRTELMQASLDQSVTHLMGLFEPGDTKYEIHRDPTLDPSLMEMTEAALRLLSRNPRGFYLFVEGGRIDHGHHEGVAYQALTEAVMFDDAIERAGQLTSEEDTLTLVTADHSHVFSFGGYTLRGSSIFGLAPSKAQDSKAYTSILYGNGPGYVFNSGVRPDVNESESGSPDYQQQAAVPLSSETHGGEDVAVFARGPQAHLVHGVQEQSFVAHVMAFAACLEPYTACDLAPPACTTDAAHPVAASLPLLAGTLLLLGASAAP
T4 sequence (P10635 whole entry): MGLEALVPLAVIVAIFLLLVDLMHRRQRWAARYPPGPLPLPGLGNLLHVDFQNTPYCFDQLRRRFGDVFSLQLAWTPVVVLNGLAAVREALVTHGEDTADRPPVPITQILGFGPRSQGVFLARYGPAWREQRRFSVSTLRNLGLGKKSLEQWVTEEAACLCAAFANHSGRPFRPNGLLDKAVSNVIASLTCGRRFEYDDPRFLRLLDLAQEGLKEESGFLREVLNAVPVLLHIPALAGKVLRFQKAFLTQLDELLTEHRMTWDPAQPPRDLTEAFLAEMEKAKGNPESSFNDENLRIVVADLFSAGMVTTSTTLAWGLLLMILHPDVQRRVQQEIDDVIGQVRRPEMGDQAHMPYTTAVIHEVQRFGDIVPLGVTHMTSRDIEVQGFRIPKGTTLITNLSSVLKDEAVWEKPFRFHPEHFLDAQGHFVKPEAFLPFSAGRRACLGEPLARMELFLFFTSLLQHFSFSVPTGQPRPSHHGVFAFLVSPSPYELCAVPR
Chain of Intestinal-type alkaline phosphatase (Mus musculus, UniProt P24822) (P24822 whole entry): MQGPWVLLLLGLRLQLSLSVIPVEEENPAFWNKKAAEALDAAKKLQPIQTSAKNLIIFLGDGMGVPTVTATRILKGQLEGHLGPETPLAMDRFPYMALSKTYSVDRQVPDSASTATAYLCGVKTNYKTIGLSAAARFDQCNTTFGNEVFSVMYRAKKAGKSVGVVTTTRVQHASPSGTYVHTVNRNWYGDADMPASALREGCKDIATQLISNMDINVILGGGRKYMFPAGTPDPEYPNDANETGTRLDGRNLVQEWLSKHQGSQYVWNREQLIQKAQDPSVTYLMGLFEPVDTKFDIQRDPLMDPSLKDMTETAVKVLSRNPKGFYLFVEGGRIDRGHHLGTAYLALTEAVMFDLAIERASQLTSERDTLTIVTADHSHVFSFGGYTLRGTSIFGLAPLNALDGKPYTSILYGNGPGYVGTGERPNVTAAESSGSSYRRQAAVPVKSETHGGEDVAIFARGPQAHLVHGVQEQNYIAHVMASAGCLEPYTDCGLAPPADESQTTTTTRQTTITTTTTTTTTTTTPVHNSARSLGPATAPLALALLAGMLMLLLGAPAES
Chain of Nucleotide-binding oligomerization domain-containing protein 1 (Q9Y239 whole entry, the tested form may be a part): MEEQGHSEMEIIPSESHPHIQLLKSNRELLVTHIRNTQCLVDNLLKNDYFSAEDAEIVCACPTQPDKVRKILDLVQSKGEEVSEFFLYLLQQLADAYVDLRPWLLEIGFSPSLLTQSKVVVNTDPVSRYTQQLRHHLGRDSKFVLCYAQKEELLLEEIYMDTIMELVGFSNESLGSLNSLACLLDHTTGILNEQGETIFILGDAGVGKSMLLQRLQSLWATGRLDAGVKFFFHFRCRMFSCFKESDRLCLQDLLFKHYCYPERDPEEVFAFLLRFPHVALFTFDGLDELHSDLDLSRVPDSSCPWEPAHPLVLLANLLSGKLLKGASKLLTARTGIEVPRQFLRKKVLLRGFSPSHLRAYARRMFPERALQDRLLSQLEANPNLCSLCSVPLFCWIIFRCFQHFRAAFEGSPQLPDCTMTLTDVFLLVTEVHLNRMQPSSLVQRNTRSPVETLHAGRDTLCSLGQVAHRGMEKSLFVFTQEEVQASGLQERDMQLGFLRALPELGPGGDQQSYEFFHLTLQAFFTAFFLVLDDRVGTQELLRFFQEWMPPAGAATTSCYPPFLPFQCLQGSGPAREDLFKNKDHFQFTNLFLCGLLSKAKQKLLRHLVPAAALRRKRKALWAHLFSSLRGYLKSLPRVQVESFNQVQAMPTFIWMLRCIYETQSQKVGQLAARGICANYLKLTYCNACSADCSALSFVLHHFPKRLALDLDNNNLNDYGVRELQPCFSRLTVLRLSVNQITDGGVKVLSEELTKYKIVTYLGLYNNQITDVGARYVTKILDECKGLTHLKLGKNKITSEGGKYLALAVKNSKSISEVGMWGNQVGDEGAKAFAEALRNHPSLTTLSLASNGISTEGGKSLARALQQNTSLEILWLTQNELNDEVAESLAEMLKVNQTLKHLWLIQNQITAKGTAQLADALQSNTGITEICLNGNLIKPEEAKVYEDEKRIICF
Chain of Cytochrome P450 2C9 (P11712 whole entry): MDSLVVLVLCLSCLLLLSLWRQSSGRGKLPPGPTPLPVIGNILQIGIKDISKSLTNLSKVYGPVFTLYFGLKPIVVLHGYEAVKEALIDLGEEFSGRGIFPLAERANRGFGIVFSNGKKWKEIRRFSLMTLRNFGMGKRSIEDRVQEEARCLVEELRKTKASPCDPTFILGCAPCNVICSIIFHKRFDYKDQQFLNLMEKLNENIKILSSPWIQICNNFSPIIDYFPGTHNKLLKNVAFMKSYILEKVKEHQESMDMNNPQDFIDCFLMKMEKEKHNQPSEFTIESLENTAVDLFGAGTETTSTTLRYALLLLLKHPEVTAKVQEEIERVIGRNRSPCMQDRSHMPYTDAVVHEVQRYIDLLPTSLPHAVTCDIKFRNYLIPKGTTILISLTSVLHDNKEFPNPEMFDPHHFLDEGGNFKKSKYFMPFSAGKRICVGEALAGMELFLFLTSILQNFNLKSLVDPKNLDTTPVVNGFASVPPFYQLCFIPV
Chain of Tumor necrosis factor (P01375 whole entry): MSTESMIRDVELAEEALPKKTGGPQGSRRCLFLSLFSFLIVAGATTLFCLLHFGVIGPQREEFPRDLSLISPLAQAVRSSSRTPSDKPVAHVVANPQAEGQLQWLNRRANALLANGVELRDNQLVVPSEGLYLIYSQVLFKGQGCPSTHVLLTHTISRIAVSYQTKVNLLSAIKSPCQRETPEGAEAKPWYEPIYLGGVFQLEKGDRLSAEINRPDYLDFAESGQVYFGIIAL
Chain of Lysine-specific demethylase 4C (Q9H3R0 whole entry): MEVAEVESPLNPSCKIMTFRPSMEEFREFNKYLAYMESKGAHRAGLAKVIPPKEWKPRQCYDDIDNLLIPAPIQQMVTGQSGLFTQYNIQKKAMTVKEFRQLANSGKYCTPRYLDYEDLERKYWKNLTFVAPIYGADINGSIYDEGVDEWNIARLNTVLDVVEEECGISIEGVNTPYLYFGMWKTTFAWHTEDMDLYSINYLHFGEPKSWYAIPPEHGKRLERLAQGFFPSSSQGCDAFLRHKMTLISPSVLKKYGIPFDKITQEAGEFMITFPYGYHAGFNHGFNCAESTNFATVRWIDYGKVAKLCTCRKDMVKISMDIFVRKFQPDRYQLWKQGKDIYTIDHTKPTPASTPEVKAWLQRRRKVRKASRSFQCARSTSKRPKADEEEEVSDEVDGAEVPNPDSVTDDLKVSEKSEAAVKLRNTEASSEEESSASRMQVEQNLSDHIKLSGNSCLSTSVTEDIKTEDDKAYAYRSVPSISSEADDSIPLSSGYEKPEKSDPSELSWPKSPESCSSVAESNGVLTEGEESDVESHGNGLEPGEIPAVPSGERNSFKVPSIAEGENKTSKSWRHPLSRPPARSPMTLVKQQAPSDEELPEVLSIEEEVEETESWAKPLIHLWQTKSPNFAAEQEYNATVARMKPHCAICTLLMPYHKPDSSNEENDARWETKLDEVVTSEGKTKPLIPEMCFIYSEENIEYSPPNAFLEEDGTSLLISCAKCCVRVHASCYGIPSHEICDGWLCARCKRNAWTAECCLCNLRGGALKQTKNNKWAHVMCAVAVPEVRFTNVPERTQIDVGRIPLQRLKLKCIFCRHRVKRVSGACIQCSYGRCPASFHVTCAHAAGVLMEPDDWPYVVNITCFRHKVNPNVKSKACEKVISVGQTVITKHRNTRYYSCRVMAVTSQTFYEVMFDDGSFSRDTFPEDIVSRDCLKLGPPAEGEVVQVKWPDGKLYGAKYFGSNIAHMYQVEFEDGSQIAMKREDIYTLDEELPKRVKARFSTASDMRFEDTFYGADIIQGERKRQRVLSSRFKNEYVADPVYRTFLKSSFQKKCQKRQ

Take `CSc1ccc(NC(=O)c2ccc(CN3CCc4ccccc4C3)cc2)cc1`: the results for the IC50 (in data set [1]; with HEK293 [2]; at Tumor necrosis factor) were 0.243 µM (active), 7.86 µM (active) and 0.372 µM (active), respectively.
Take `Cc1ccsc1C(=O)NNC(=S)NC1CCCCC1`: the EC50 in data set [3] is 15 µM (active); in data set [5] it was 13.9 µM (active); in data set [6], 10.3 µM (active). Besides, the IC50 in [4] is 56.7 µM (active).
As to `C=CCc1cc(Cl)ccc1OCCOCCNC(C)CC` (stereo not given), the AC50 was 21.5 µM (active) in data set [7] and 34.5 µM (active) in data set [8].
Consider `CCN(C[C@H]1N[C@@](CC)(C(=O)OC)[C@H]2C(=O)N(Cc3ccccc3)C(=O)[C@@H]12)S(=O)(=O)c1ccc(C(C)(C)C)cc1`, for which the AC50 in [9] was 42.6 µM (active).
`CCCCn1c(-c2nonc2NC(=O)c2ccccc2Cl)nc2ccccc21`: the AC50 is > 70 µM (inactive) in [10], 1.39 µM (active) in data set [11] and 1.11 µM (active) in [13]. In addition, the IC50 in the data set with Vero [12] was 0.73 µM (active). Further, the CC50 with Vero [14] is 11.8 µM (active).
With `Cc1ccc(CSc2nc(O)c(C#N)c(-c3ccccc3)n2)cc1`, the IC50 is > 20 µM (inactive) in the data set with HEK293 [15]; > 20 µM (inactive) in the data set with HEK293 [2]; > 20 µM (inactive) in the data set on HEK293 [17]; > 20 µM (inactive) in the data set on HEK293 [18]; 12.9 µM (inactive) in the data set with HEK293 [19]. For the same compound, the EC50 in the data set with HEK293 [16] was 9.39 µM (active).
As to `C=C[C@H]1CN2CC[C@@H]1C[C@H]2[C@@H](O)c1ccnc2ccc(OC)cc12.Cl.O`, the AC50 entry at Cytochrome P450 1A2 and at Cytochrome P450 2C9 was “inactive” each time.
For the compound `COc1cccc2c1C(=O)c1c(O)c3c(c(O)c1C2=O)C[C@](O)(C(C)=O)C[C@H]3O[C@@H]1C[C@H](N)[C@H](O)[C@H](C)O1`, the AC50 result on Cytochrome P450 2D6 [20] and at Cytochrome P450 1A2 was “inactive” throughout.
As for `C=CCn1c(SC(C)C(=O)NCc2ccc3c(c2)OCO3)nc2scc(-c3ccccc3)c2c1=O` (stereo not given), the EC50 in the data set with HEK293 [21] and in the data set on HEK293 [22] was > 59.7 µM (inactive) throughout. Also, the AC50 at Cytochrome P450 2D6 [23] is 3.16 µM (inconclusive).
For the compound `COc1cc(NC(=O)c2ccnc(N)c2)cc(C(=O)Nc2cccc(C(F)(F)F)c2)c1`, the AC50 in data set [7] is 17.4 µM (active); in data set [8], 39.5 µM (active).
Turning to `CCN(CC)c1ccc(/C=N/NC(=O)c2nnn(-c3nonc3N)c2C(C)C)c(O)c1`, the half-maximal effective concentration (EC50) in the data set with BJ [24] is 0.199 µM (active); in data set [3], 20.6 µM (active); in the data set on BJ [25], 6.05 µM (inconclusive); in the data set with BJ [26], 2.83 µM (active); in “cells [27]”, > 350 µM (not active); in [28], 0.401 µM (active). The concentration for a half-maximal effect (EC50) was 7.4 µM (inconclusive) with BJ [29]; 5.38 µM (active) in “cells [30]”; 19 µM (active) in data set [5]; 8.09 µM (inconclusive) in data set [31]; 10.5 µM (active) in [6]; 4 µM (active) in data set [33]. For the same compound, the AC50 in the data set with INS1 was < 0.195 µM (active). Moreover, the IC50 in [4] is 78 µM (active); in [32], > 80 µM (inactive).

Broadly, the IC50 is the midpoint of a concentration-inhibition curve. Broadly, the EC50 is the concentration giving half of the maximal effect. What is called AC50 is the midpoint of the concentration-response curve, whichever way the signal moves. What is called CC50 is the concentration that lowers cell viability or growth by half.

For the origin of these results see ChEMBL document CHEMBL1201862, “PubChem BioAssay data set” (2004).
